Read-outs that look alike come from different tables or passages of the source.
Assays:
[1] = system: Amaranthus rudis (AMATA), tall water hemp; experiment: Postemergence herbicide evaluation, growth of Amaranthus rudis (AMATA); format: in vivo; settings: Amaranthus tuberculatus, post-emergence, read-out: Ave. AMATA, percent reduction in plant size relative to the untreated control; for pest or weed control at 280 g/ha: 280 g ae/ha; for pest or weed control at 560 g/ha: 560 g ae/ha
[2] = system: Ambrosia artemisiifolia (AMBEL), common ragweed; experiment: Postemergence herbicide evaluation, growth of Ambrosia artemisiifolia (AMBEL); format: in vivo; settings: Ambrosia artemisiifolia, post-emergence, read-out: AVE. AMBEL, percent reduction in plant size relative to the untreated control; for pest or weed control at 280 g/ha: 280 g ae/ha; for pest or weed control at 560 g/ha: 560 g ae/ha
[3] = system: Abutilon theophrasti (ABUTH), velvetleaf; experiment: Postemergence herbicide evaluation, growth of Abutilon theophrasti (ABUTH); format: in vivo; settings: Abutilon theophrasti, post-emergence, read-out: AVE. ABUTH, percent reduction in plant size relative to the untreated control; for pest or weed control at 280 g/ha: 280 g ae/ha; for pest or weed control at 560 g/ha: 560 g ae/ha
[4] = system: Chenopodium album (CHEAL), common lambsquarters; experiment: Postemergence herbicide evaluation, growth of Chenopodium album (CHEAL); format: in vivo; settings: Chenopodium album, post-emergence, read-out: Ave. CHEAL, percent reduction in plant size relative to the untreated control; for pest or weed control at 280 g/ha: 280 g ae/ha; for pest or weed control at 560 g/ha: 560 g ae/ha
[5] = system: glyphosate resistant Conyza canadensis (L.) (ERICA), horseweed; experiment: Postemergence herbicide evaluation, growth of Conyza canadensis (ERICA); format: in vivo; settings: Erigeron canadensis, post-emergence, read-out: Ave. ERICA, percent reduction in plant size relative to the untreated control; for pest or weed control at 280 g/ha: 280 g ae/ha; for pest or weed control at 560 g/ha: 560 g ae/ha
[6] = Volatility of compounds measured by thermogravimetric analysis (TGA); format: physicochemical
[7] = system: weeds ABUTH, AMATA, AMBEL, CHEAL, ERICA; experiment: Postemergence herbicide evaluation, overall average % weed control (ABUTH, AMATA, AMBEL, CHEAL, ERICA); format: in vivo; settings: post-emergence, read-out: Overall Ave % Weed Control; for pest or weed control at 280 g/ha: 280 g ae/ha; for pest or weed control at 560 g/ha: 560 g ae/ha

## N/C(=N\OC(=O)COc1ccc(Cl)cc1Cl)c1cccnc1 [Compound A4, N′-(2-(2,4-Dichlorophenoxy)acetoxy)nicotinimidamide]
[1]; 168 h, 7 DAA
  pest or weed control at 280 g/ha: 75%
  pest or weed control at 560 g/ha: 60%
[1]; 336 h, 14 DAA
  pest or weed control at 280 g/ha: 75%
  pest or weed control at 560 g/ha: 73%
[1]; 504 h, 21 DAA
  pest or weed control at 280 g/ha: 70%
  pest or weed control at 560 g/ha: 75%
[2]; 168 h, 7 DAA
  pest or weed control at 280 g/ha: 60%
  pest or weed control at 560 g/ha: 68%
[2]; 336 h, 14 DAA
  pest or weed control at 280 g/ha: 78%
  pest or weed control at 560 g/ha: 88%
[2]; 504 h, 21 DAA
  pest or weed control at 280 g/ha: 88%
  pest or weed control at 560 g/ha: 85%
[3]; 168 h, 7 DAA
  pest or weed control at 280 g/ha: 35%
  pest or weed control at 560 g/ha: 50%
[3]; 336 h, 14 DAA
  pest or weed control at 280 g/ha: 40%
  pest or weed control at 560 g/ha: 58%
[3]; 504 h, 21 DAA
  pest or weed control at 280 g/ha: 38%
  pest or weed control at 560 g/ha: 53%
[4]; 168 h, 7 DAA
  pest or weed control at 280 g/ha: 60%
  pest or weed control at 560 g/ha: 68%
[4]; 336 h, 14 DAA
  pest or weed control at 280 g/ha: 63%
  pest or weed control at 560 g/ha: 75%
[4]; 504 h, 21 DAA
  pest or weed control at 280 g/ha: 63%
  pest or weed control at 560 g/ha: 83%
[5]; 168 h, 7 DAA
  pest or weed control at 280 g/ha: 60%
  pest or weed control at 560 g/ha: 65%
[5]; 336 h, 14 DAA
  pest or weed control at 280 g/ha: 83%
  pest or weed control at 560 g/ha: 85%
[5]; 504 h, 21 DAA
  pest or weed control at 280 g/ha: 88%
  pest or weed control at 560 g/ha: 88%
[6]
  TGA Data (rate of weight loss, volatility): 1 µg/min
[7]; 168 h, 7 DAA
  pest or weed control at 280 g/ha: 58%
  pest or weed control at 560 g/ha: 62%
[7]; 336 h, 14 DAA
  pest or weed control at 280 g/ha: 68%
  pest or weed control at 560 g/ha: 76%
[7]; 504 h, 21 DAA
  pest or weed control at 280 g/ha: 69%
  pest or weed control at 560 g/ha: 77%

## C/C(=N\OC(=O)COc1ccc(Cl)cc1Cl)c1ccccc1Cl [Compound A24]
[1]; 168 h, 7 DAA
  pest or weed control at 280 g/ha: 82.5%
  pest or weed control at 560 g/ha: 72.5%
[1]; 336 h, 14 DAA
  pest or weed control at 280 g/ha: 92.5%
  pest or weed control at 560 g/ha: 90%
[1]; 504 h, 21 DAA
  pest or weed control at 280 g/ha: 77.5%
  pest or weed control at 560 g/ha: 72.5%
[2]; 168 h, 7 DAA
  pest or weed control at 280 g/ha: 70%
  pest or weed control at 560 g/ha: 75%
[2]; 336 h, 14 DAA
  pest or weed control at 280 g/ha: 75%
  pest or weed control at 560 g/ha: 75%
[2]; 504 h, 21 DAA
  pest or weed control at 280 g/ha: 97.5%
  pest or weed control at 560 g/ha: 100%
[3]; 168 h, 7 DAA
  pest or weed control at 280 g/ha: 62.5%
  pest or weed control at 560 g/ha: 57.5%
[3]; 336 h, 14 DAA
  pest or weed control at 280 g/ha: 77.5%
  pest or weed control at 560 g/ha: 67.5%
[3]; 504 h, 21 DAA
  pest or weed control at 280 g/ha: 80%
  pest or weed control at 560 g/ha: 85%
[4]; 168 h, 7 DAA
  pest or weed control at 280 g/ha: 75%
  pest or weed control at 560 g/ha: 77.5%
[4]; 336 h, 14 DAA
  pest or weed control at 280 g/ha: 91.5%
  pest or weed control at 560 g/ha: 95%
[4]; 504 h, 21 DAA
  pest or weed control at 280 g/ha: 98.5%
  pest or weed control at 560 g/ha: 94.5%
[5]; 168 h, 7 DAA
  pest or weed control at 280 g/ha: 80%
  pest or weed control at 560 g/ha: 75%
[5]; 336 h, 14 DAA
  pest or weed control at 280 g/ha: 98.5%
  pest or weed control at 560 g/ha: 91.5%
[5]; 504 h, 21 DAA
  pest or weed control at 280 g/ha: 94.5%
  pest or weed control at 560 g/ha: 97%
[6]
  TGA Data (rate of weight loss, volatility): 0.03549 µg/min
[7]; 168 h, 7 DAA
  pest or weed control at 280 g/ha: 74%
  pest or weed control at 560 g/ha: 71.5%
[7]; 336 h, 14 DAA
  pest or weed control at 280 g/ha: 87%
  pest or weed control at 560 g/ha: 83.8%
[7]; 504 h, 21 DAA
  pest or weed control at 280 g/ha: 89.6%
  pest or weed control at 560 g/ha: 89.8%

## O=C(COc1ccc(Cl)cc1Cl)O/N=C1\CCCc2ccccc21 [Compound A25]
[1]; 168 h, 7 DAA
  pest or weed control at 280 g/ha: 65%
  pest or weed control at 560 g/ha: 57.5%
[1]; 336 h, 14 DAA
  pest or weed control at 280 g/ha: 80%
  pest or weed control at 560 g/ha: 82.5%
[1]; 504 h, 21 DAA
  pest or weed control at 280 g/ha: 50%
  pest or weed control at 560 g/ha: 64%
[2]; 168 h, 7 DAA
  pest or weed control at 280 g/ha: 70%
  pest or weed control at 560 g/ha: 80%
[2]; 336 h, 14 DAA
  pest or weed control at 280 g/ha: 62.5%
  pest or weed control at 560 g/ha: 67.5%
[2]; 504 h, 21 DAA
  pest or weed control at 280 g/ha: 87.5%
  pest or weed control at 560 g/ha: 82.5%
[3]; 168 h, 7 DAA
  pest or weed control at 280 g/ha: 27.5%
  pest or weed control at 560 g/ha: 30%
[3]; 336 h, 14 DAA
  pest or weed control at 280 g/ha: 22.5%
  pest or weed control at 560 g/ha: 27.5%
[3]; 504 h, 21 DAA
  pest or weed control at 280 g/ha: 17.5%
  pest or weed control at 560 g/ha: 30%
[4]; 168 h, 7 DAA
  pest or weed control at 280 g/ha: 72.5%
  pest or weed control at 560 g/ha: 72.5%
[4]; 336 h, 14 DAA
  pest or weed control at 280 g/ha: 65%
  pest or weed control at 560 g/ha: 92.5%
[4]; 504 h, 21 DAA
  pest or weed control at 280 g/ha: 75%
  pest or weed control at 560 g/ha: 75%
[5]; 168 h, 7 DAA
  pest or weed control at 280 g/ha: 60%
  pest or weed control at 560 g/ha: 72.5%
[5]; 336 h, 14 DAA
  pest or weed control at 280 g/ha: 83.5%
  pest or weed control at 560 g/ha: 77.5%
[5]; 504 h, 21 DAA
  pest or weed control at 280 g/ha: 67.5%
  pest or weed control at 560 g/ha: 99%
[6]
  TGA Data (rate of weight loss, volatility): 0.8976 µg/min
[7]; 168 h, 7 DAA
  pest or weed control at 280 g/ha: 59%
  pest or weed control at 560 g/ha: 62.5%
[7]; 336 h, 14 DAA
  pest or weed control at 280 g/ha: 62.7%
  pest or weed control at 560 g/ha: 69.5%
[7]; 504 h, 21 DAA
  pest or weed control at 280 g/ha: 59.5%
  pest or weed control at 560 g/ha: 70.1%
